Here are results for 3 molecules from patent US9795602B2, “Polycyclic-carbamoylpyridone compounds and their pharmaceutical use” (Gilead Sciences, Inc., priority 2014, dated 2017).

One data set concerns MT4 cells. The data set can be described thus: Cytotoxicity (CC50) in MT4 cells, mock-infected. Conditions: 5 days. The format is cell-based. An outline of the steps:
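Mock-infected MT4 cells (2000/well) exposed to compounds for 5 days at 37 °C; cell viability then read as chemiluminescence from CellTiter-Glo after brief room-temperature lysis.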

The next data set concerns HIV-IIIb. Briefly: Antiviral assay in MT4 cells. The format is cell-based. Conditions: read-out: EC50. An outline of the steps: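 MT4 cells infected with HIV-IIIb (0.004 m.o.i.) or mock-infected, then plated at 2000 cells per well with compound. After 5 days at 37 °C, cell viability read by CellTiter-Glo chemiluminescence.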
The target of a further data set is PXR (NR1I2) (Homo sapiens (Human), UniProt O75469). The data set can be described thus: Human PXR activation assay (luciferase reporter, DPX2 cells). The class given is cell-based. The following applies: human; 15 uM; DPX2 cells; % Emax relative to rifampicin, adjusted for DMSO background; read-out: PXR % inh at 15 uM (adjusted). As for the experimental part:
(§1) Luciferase Reporter Gene Assay.
(§2) A stably transformed tumor cell line (DPX2) was plated on 96-well microtiter plates. […]. The number of viable cells was determined and the reporter gene activity was assessed. […]

Another data set has as its target OCT2 (Homo sapiens (Human), UniProt O15244). The data set can be described thus: OCT2 inhibition assay (14C-TEA uptake, OCT2-transfected MDCKII cells). The class given is cell-based. As for the experimental part:
MDCKII cells were maintained in minimal essential medium (MEM) with 1% Pen/Strep, 10% fetal bovine serum, and 0.25 mg/mL hygromycin B in an incubator set at 37° C., 90% humidity and 5% CO2. 24 hours prior to assay, media containing 5 mM sodium butyrate were added to MDCKII cells in flasks, and cells were grown to 80-90% confluence. On assay day, cells were trypsinized and resuspended in Krebs-Henseleit Buffer (KHB), pH 7.4 at […]. Cells were preincubated for 15 min in assay plate before addition of test compound or substrate.
Test compounds were serially diluted in DMSO and then spiked (2 μL) into in 0.4 mL KHB buffer containing wild-type or OCT2-transfected cells and incubated for 10 minutes. Assay was initiated with the addition of 0.1 mL of 100 μM ^14C-TEA in KHB buffer (20 μM final concentration after mixing). The concentration of TEA is based on the Km. After 10 minutes of incubation, the assay mixture was quenched with addition of 0.5 mL of ice-cold 1×PBS buffer. Samples were then centrifuged at 1000 rpm for 5 min and supernatants were removed. Wash steps were repeated four times with ice-cold PBS. Finally, the cell pellets were lysed with 0.2N NaOH and let sit at room temperature for at least 30 min to ensure complete lysis. Samples were then counted on liquid scintillation counter and dpm counts were used to perform the following calculations. The % inhibition was calculated as follows: % inhibition=[1−{[OCT2]i−[WT]ni}/{[OCT2]ni−[WT]ni}]*100 where, [OCT2]i represents the dpm count in the presence of test compound for either OCT2 cells, […] of test compound for OCT2 cells and [WT]ni represents the dpm count in the absence of test compound for wild type cells, respectively.

In another data set the target is human PXR (Homo sapiens (Human), UniProt O75469). The data set can be described thus: Human PXR activation assay (luciferase reporter, DPX2 cells). The class given is cell-based. Conditions: 15 uM; DPX2 cells; % Emax relative to rifampicin, adjusted for DMSO background. As for the experimental part:
as §1, §2

A short description of data set [1]: Pharmacokinetics after oral administration to male SD rats. The class given is in vivo. Conditions: Sprague-Dawley, plasma, rat, oral gavage 0.5 mg/kg, solution, read-out: % F (solution). How it is done:
(§3) Pharmacokinetic analysis was performed on compounds 25b and 39 following intravenous or oral administration to rats.
(§4) The test compounds were formulated in 5% Ethanol, 55% PEG 300, and 40% water at 0.1 mg/mL for IV infusion and for oral dosing.
(§5) Each dosing group consisted of 3 male, Sprague-Dawley rats. At dosing, the animals weighed an average of 0.25 kg. The animals were fasted overnight prior to dose administration and up to 4 hr after dosing.
(§6) For the IV infusion group, the test article was administered by intravenous infusion over 30 min. The rate of infusion was adjusted according to the body weight of each animal to deliver a dose of 0.5 mg/kg. For the oral dosing group, the test article was administered by oral gavage at 5 mL/kg for a dose of 0.5 mg/kg.
For pharmacokinetic analysis of orally administered compounds, serial venous blood samples (approximately 0.3 mL each) were taken from each animal at time points of 0, 0.25, 0.50, 1.0, 2.0, 4.0, 6.0, 8.0, 12.0 24.0, 48.0 and 72 hours after dosing. Blood samples were collected, prepared and analyzed in a similar way to the intravenous studies described above. Non-compartmental pharmacokinetic analysis was performed on the plasma concentration-time data. In Table 2, F (%) refers to oral bioavailability.

The nature of data set [2]: Plasma protein binding (equilibrium dialysis). The format is in vitro ADME. The following applies: human, plasma (sodium EDTA) dialysed against buffer; 2 μM in plasma vs. buffer, 24 hours at 37° C.; read-out: % Free HP/Buffer. As for the experimental part: Plasma protein binding was determined using a HTD96b equilibrium dialyzer with a plate base, stainless steel pressure plate and Teflon bock. 9 Teflon bars, labeled sequentially from A through I, were assembled with two stainless steel connecting rods. Membranes were placed between two Teflon bars, with the membrane placed approximately 2 mm below the top edge of the bar and the lower membrane edge overlapped the bottom of all wells. The membrane was soaked for about 20 minutes in water, about 20 minutes in ethanol (30/70 v/v) and rinsed with water three times to remove the ethanol. It was soaked in PBS for at least 30 minutes. Plasma in sodium EDTA (Bioreclamation or equivalent) was used. The Plasma (not pH-adjusted) was stored at −80° C. and thawed at room temperature before use. The stock solution of the compounds tested was at 200 μM in DMSO. The quench solution used was 50 nM of an internal standard in 100% ACN. To prepare a 2 μM solution of the compound tested in plasma, 5 μL of a 200 μM stock solution was added to 495 μL of blank plasma. 100 μL plasma was added with 2 μM of test compound into one side of the well. 100 μL of buffer (for plasma vs. buffer) was added into another side of the well. The 96-well plate was covered using an adhesive sealing film and incubated for 24 hours at 37° C. under slow rotation. This procedure was replicated for each compound. 50 μL of plasma sample was put into a 96 well plate, 50 μL of buffer was added. 50 μL of buffer was put into a 96 well plate. 50 μL of plasma was added. 300 μL of quench solution was added and the plate sealed and shaken for 15 minutes. The material was centrifuged for 30 minutes at 3000 RPM and ˜250 μL was transferred into a short plate. The samples were analyzed by LC/MS. The resulting data is shown in the last row of Table 3 as “% Free” which corresponds to the percentage of compound not protein bound.

The nature of data set [3]: Pharmacokinetics after intravenous infusion to male SD rats. The following applies: Sprague-Dawley, plasma, rat, IV infusion 0.5 mg/kg. The format is in vivo. As for the experimental part: as §3, §4, §5, §6
For pharmacokinetic analysis of intravenously administered compounds, serial venous blood samples (approximately 0.3 mL each) were taken from each animal at 0, 0.250, 0.483, 0.583, 0.750, 1.50, 3.00, 6.00, 8.00, 12.0, 24.0, 48 and 72 hours after dosing. The blood samples were collected into Vacutainer™ tubes containing EDTA-K2 as the anti-coagulant and were immediately placed on wet ice pending centrifugation for plasma. An LC/MS/MS method was used to measure the concentration of the test compound in plasma. An aliquot of 50 μL of each plasma sample was added to a clean 96 well plate, and 200 μL of cold acetonitrile/internal standard solution (ACN)/(ISTD) was added. After protein precipitation, an aliquot of 110 μL of the supernatant was transferred to a clean 96-well plate and diluted with 300 μL of water. An aliquot of 10 μL of the above solution was injected into a ABSciex API-4000 triple quadrupole LC/MS/MS system utilizing a HyPurity C18 HPLC column (30×2.1 mm, 3μ), from Thermo-Hypersil (Part #22103-032130). An Agilent 1200 series binary pump (P/N G1312A Bin Pump) was used for elution and separation, and an HTS Pal autosampler (LEAP Technologies, Carrboro, N.C.) was used for sample injection. A API-4000 triple quadrupole mass spectrometer was utilized in multiple reaction monitoring mode (Applied Biosystems, Foster City, Calif.). Liquid chromatography was performed using two mobile phases: mobile phase A contained 0.1% formic acid and 1% isopropylamine in aqueous solution, and mobile phase B contained […]. Non-compartmental pharmacokinetic analysis was performed on the plasma concentration-time data. The resulting data are shown in the first three columns of Table 2. In Table 2, Cl refers to clearance, which characterizes the rate at which drug is removed from plasma. The lower the clearance of a drug is, the longer the elimination half-life is in the body. Vss refers to the steady state volume of distribution and indicates how well a drug is distributed into the tissues. The larger the Vss is, the longer the elimination half-life is in the body. MRT refers to mean residence time, which is a measure of the average time molecules exist in the body.

For another data set, the system named is HIV-1 N155H/Q148R. The format is cell-based. Conditions: MT2 cells; mean EC50 mutant / mean EC50 wt. As for the experimental part: (§7) For the antiviral assay utilizing MT-2 cells, 50 μL of 2× test concentration of 3-fold serially diluted compound in culture medium with 10% FBS was added to each well of a 96-well plate (9 concentrations) in triplicate. MT-2 cells were infected with wild-type or mutant variants of HIV-1 for 3 hours using a volume of viral inoculum determined to produce 90% cell killing. Fifty microliters of infected cell suspension in culture medium with 10% FBS (˜1.5×10^4 cells) was then added to each well containing 50 μL of serially diluted compound. The plates with HIV-infected cultures were then incubated at 37° C. for 5 days in the presence of the tested compounds. After 5 days of incubation, 100 μL of CellTiter-Glo™ Reagent (catalog # G7571, Promega Biosciences, Inc., Madison, Wis.) was added to each well. Cell lysis was carried out by incubating at room temperature for 10 min followed by a chemiluminescence read-out.
(§8) The chemiluminescence readout from the 10-point antiviral dose response was analyzed directly by curve fitting with equation (I) to determine the EC50.
(§9) where y=Cell Survival, M=maximum cell survival enabled by drug protection, H=baseline cell survival without drug protection, n=Hill coefficient of the antiviral dose response, m=Hill coefficient of the cytotoxicity dose response, and [I]=inhibitor concentration.
(§10) EC50 values (mean±standard deviation) were calculated from at least three independent experiments performed in triplicate. The fold-change in antiviral activity of tested compounds was calculated as a ratio of the mean EC50 for each mutant virus divided by the mean EC50 of the control WT virus.

The subject of a further data set is HIV-1 G140S/Q148R. The class given is cell-based. Conditions: MT2 cells; mean EC50 mutant / mean EC50 wt. As for the experimental part:
as §7, §8, §9, §10

For a further data set, the system named is HIV-1 E138K/Q148K. The format is cell-based. Conditions: MT2 cells; mean EC50 mutant / mean EC50 wt. As for the experimental part:
as §7, §8, §9, §10

The test system of another data set is HIV-1 E92Q/N155H. The format is cell-based. Conditions: MT2 cells; mean EC50 mutant / mean EC50 wt. As for the experimental part:
as §7, §8, §9, §10

Another data set has as its system wild-type HIV-1. The data set can be described thus: Antiviral assay in MT-2 cells, wild-type HIV-1. The class given is cell-based. Conditions: Human immunodeficiency virus 1, 120 h; MT2 cells, wild-type HIV-1, 5 days; read-out: wt. How it is done:
as §7, §8, §9, §10

Like-named read-outs stand apart in the source and are kept apart here.

Chain of OCT2 (O15244 whole entry): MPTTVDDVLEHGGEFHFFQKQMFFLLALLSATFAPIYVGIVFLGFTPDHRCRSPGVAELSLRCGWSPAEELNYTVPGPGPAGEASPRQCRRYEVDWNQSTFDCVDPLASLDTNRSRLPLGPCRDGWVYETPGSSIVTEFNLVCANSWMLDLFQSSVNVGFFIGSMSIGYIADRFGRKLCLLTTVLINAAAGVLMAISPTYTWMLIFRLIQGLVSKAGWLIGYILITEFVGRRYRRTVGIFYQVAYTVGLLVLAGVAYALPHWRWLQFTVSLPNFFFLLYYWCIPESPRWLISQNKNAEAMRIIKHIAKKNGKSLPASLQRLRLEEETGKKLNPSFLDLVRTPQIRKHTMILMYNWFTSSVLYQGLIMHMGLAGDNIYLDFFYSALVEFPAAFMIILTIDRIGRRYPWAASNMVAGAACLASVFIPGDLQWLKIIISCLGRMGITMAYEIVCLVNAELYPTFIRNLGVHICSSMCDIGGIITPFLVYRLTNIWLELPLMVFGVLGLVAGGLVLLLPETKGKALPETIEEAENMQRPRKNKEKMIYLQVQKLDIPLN
Chain of PXR (NR1I2) (O75469 whole entry): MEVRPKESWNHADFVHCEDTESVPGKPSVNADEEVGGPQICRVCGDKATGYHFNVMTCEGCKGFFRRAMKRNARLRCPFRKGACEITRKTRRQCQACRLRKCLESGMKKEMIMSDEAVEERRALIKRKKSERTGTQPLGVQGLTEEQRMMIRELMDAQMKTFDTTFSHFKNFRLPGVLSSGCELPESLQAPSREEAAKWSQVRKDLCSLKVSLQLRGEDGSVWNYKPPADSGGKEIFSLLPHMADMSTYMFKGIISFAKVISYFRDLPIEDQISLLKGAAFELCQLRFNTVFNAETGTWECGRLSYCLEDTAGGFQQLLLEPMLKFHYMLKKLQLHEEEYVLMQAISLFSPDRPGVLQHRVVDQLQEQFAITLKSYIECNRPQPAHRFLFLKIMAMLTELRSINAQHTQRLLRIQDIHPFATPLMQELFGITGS
Chain of human PXR (O75469 whole entry): as above

The molecule `CN1C(=O)c2c(O)c(=O)c(C(=O)NCc3c(F)cc(F)cc3F)cn2[C@@H]2CCCC[C@@H]21` [Compound 4] came in with a half-maximal cytotoxic concentration (CC50) with MT4 cells of 10.5 µM. In addition, in the data set on HIV-IIIb (MT4 cells, HIV-IIIb, 5 days), the EC50 was found to be 0.00253 µM. The inhibition at 24 h, 15 µM on PXR (NR1I2) was 65%.
Molecule `O=C(NCc1c(F)cc(F)cc1F)c1cn2c(c(O)c1=O)C(=O)N(CC(F)(F)F)[C@@H]1COCC[C@@H]12` [Compound 32] registered an IC50 at OCT2 of 10 µM. For the same molecule, the midpoint of cytotoxicity in the data set on MT4 cells, the CC50, lay at 57.1 µM. Besides, in the data set on HIV-IIIb, the EC50 came out at 0.0038 µM. For the same molecule, the “PXR % inh at 15 uM (adjusted)” value at human PXR came to 19%.
For the molecule `C[C@@H]1CCO[C@H]2Cn3cc(C(=O)NCc4ccc(F)cc4F)c(=O)c(O)c3C(=O)N12` [Dolutegravir, reference compound], the bioavailability in data set [1] came out at 84%. For the same molecule, the fraction unbound at 24 h, 2 µM in [2] is 0.01. In addition, in data set [3], the MRT is 12.4 h and the clearance was 0.167 mL/min/kg. The Vd in data set [3] (read-out: Vss) turned out to be 0.17 L/kg. Besides, the “Resistance fold shift N155H/Q148R vs. wild type” value in the data set with HIV-1 N155H/Q148R stood at 2.5 fold shift. Besides, the “Resistance fold shift G140S/Q148R vs. wild type” value in the data set on HIV-1 G140S/Q148R stood at 3.7 fold shift. The “Resistance fold shift E138K/Q148K vs. wild type” value in the data set with HIV-1 E138K/Q148K came out at 8.2 fold shift. In the data set with HIV-1 E92Q/N155H, the “Resistance fold shift E92Q/N155H vs. wild type” value is given as 1.9 fold shift. In addition, the EC50 with wild-type HIV-1 stood at 0.0017 µM.
